# Laboratory results: ChEMBL document CHEMBL2385042, “Diterpenoids with diverse skeletons from the roots of Euphorbia micractina” (J Nat Prod, 2013)
# Calls of active or inactive are those of the source. The rule behind the calls is not given here.
# Test system: MCF7
# Assay: Cytotoxicity against human MCF7 cells assessed as cell viability at 10 uM after 96 hrs by MTT assay
# Assay type: functional, cell-based
row,Compound,Activity
1,C[C@H]1C[C@]2(O)C(=O)[C@@]3(C)[C@@H]4[C@@H](O)C(C)(C)[C@H]4CC[C@@]3(C)[C@H](O)[C@H]2[C@H]1OC(=O)/C=C/c1ccccc1,inactive
2,C[C@H]1C[C@]2(O)C(=O)[C@@]3(C)[C@H](O)[C@@H]4[C@H](CC[C@@]3(C)[C@H](O)[C@H]2[C@H]1OC(=O)/C=C/c1ccccc1)C4(C)C,inactive
3,CCO[C@@H]1[C@@H]2[C@H](CC[C@@]3(C)[C@H](O)[C@H]4[C@@H](OC(=O)/C=C/c5ccccc5)[C@@H](C)C[C@]4(O)C(=O)[C@@]13C)C2(C)C,inactive
4,C[C@H]1C[C@]2(O)C(=O)[C@@]3(C)[C@H](O)[C@@H]4[C@H](CC[C@@]3(C)[C@H](O)[C@H]2[C@H]1OC(=O)c1ccccc1)C4(C)C,inactive
5,CO[C@@H]1[C@@H]2[C@H](CC[C@@]3(C)[C@H](O)[C@H]4[C@@H](O)[C@@H](C)C[C@]4(OC(=O)/C=C/c4ccccc4)C(=O)[C@@]23C)C1(C)C,inactive
6,C[C@H]1C[C@]2(O)C(=O)[C@@]3(C)[C@@H]4[C@@H](O)C(C)(C)[C@H]4CC[C@@]3(C)[C@H](O)[C@H]2[C@H]1OC(=O)c1ccccc1,inactive

# Test system: KETR3
# Assay: Cytotoxicity against human Ketr3 cells assessed as cell viability at 10 uM after 96 hrs by MTT assay
# Assay type: functional, cell-based
row,Compound,Activity
1,C[C@H]1C[C@]2(O)C(=O)[C@@]3(C)[C@@H]4[C@@H](O)C(C)(C)[C@H]4CC[C@@]3(C)[C@H](O)[C@H]2[C@H]1OC(=O)/C=C/c1ccccc1,inactive
2,C[C@H]1C[C@]2(O)C(=O)[C@@]3(C)[C@H](O)[C@@H]4[C@H](CC[C@@]3(C)[C@H](O)[C@H]2[C@H]1OC(=O)/C=C/c1ccccc1)C4(C)C,inactive
3,CCO[C@@H]1[C@@H]2[C@H](CC[C@@]3(C)[C@H](O)[C@H]4[C@@H](OC(=O)/C=C/c5ccccc5)[C@@H](C)C[C@]4(O)C(=O)[C@@]13C)C2(C)C,inactive
4,C[C@H]1C[C@]2(O)C(=O)[C@@]3(C)[C@H](O)[C@@H]4[C@H](CC[C@@]3(C)[C@H](O)[C@H]2[C@H]1OC(=O)c1ccccc1)C4(C)C,inactive
5,CO[C@@H]1[C@@H]2[C@H](CC[C@@]3(C)[C@H](O)[C@H]4[C@@H](O)[C@@H](C)C[C@]4(OC(=O)/C=C/c4ccccc4)C(=O)[C@@]23C)C1(C)C,inactive
6,C[C@H]1C[C@]2(O)C(=O)[C@@]3(C)[C@@H]4[C@@H](O)C(C)(C)[C@H]4CC[C@@]3(C)[C@H](O)[C@H]2[C@H]1OC(=O)c1ccccc1,inactive

# Test system: BGC-823
# Assay: Cytotoxicity against human BGC823 cells assessed as cell viability at 10 uM after 96 hrs by MTT assay
# Assay type: functional, cell-based
row,Compound,Activity
1,C[C@H]1C[C@]2(O)C(=O)[C@@]3(C)[C@@H]4[C@@H](O)C(C)(C)[C@H]4CC[C@@]3(C)[C@H](O)[C@H]2[C@H]1OC(=O)/C=C/c1ccccc1,inactive
2,C[C@H]1C[C@]2(O)C(=O)[C@@]3(C)[C@H](O)[C@@H]4[C@H](CC[C@@]3(C)[C@H](O)[C@H]2[C@H]1OC(=O)/C=C/c1ccccc1)C4(C)C,inactive
3,CCO[C@@H]1[C@@H]2[C@H](CC[C@@]3(C)[C@H](O)[C@H]4[C@@H](OC(=O)/C=C/c5ccccc5)[C@@H](C)C[C@]4(O)C(=O)[C@@]13C)C2(C)C,inactive
4,C[C@H]1C[C@]2(O)C(=O)[C@@]3(C)[C@H](O)[C@@H]4[C@H](CC[C@@]3(C)[C@H](O)[C@H]2[C@H]1OC(=O)c1ccccc1)C4(C)C,inactive
5,CO[C@@H]1[C@@H]2[C@H](CC[C@@]3(C)[C@H](O)[C@H]4[C@@H](O)[C@@H](C)C[C@]4(OC(=O)/C=C/c4ccccc4)C(=O)[C@@]23C)C1(C)C,inactive
6,C[C@H]1C[C@]2(O)C(=O)[C@@]3(C)[C@@H]4[C@@H](O)C(C)(C)[C@H]4CC[C@@]3(C)[C@H](O)[C@H]2[C@H]1OC(=O)c1ccccc1,inactive

# Target: T1, Tyrosine-protein phosphatase non-receptor type 1 (Homo sapiens) (UniProt P18031)
# T1 sequence (whole entry): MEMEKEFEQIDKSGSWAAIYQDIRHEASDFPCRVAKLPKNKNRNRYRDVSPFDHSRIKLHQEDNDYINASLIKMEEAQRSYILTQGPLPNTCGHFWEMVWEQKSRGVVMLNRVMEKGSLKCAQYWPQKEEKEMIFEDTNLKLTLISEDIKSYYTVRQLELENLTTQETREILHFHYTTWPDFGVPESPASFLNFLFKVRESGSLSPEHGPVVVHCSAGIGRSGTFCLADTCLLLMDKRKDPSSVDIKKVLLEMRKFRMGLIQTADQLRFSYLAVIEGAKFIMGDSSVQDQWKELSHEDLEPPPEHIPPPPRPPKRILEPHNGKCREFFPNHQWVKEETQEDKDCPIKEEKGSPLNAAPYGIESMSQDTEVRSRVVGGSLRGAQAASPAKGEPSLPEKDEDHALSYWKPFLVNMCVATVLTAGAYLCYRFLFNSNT
# Assay: Inhibition of human recombinant GST-tagged PTP1B using para-nitrophenyl phosphate as substrate assessed as release of para-nitrophenol at 10 uM after 10 mins by spectrophotometric analysis
row,Compound,inhibition
1,CCO[C@@H]1[C@@H]2[C@H](CC[C@@]3(C)[C@H](O)[C@H]4[C@@H](OC(=O)/C=C/c5ccccc5)[C@@H](C)C[C@]4(O)C(=O)[C@@]13C)C2(C)C,inactive
2,C[C@H]1C[C@]2(O)C(=O)[C@@]3(C)[C@H](O)[C@@H]4[C@H](CC[C@@]3(C)[C@H](O)[C@H]2[C@H]1OC(=O)c1ccccc1)C4(C)C,inactive
3,C[C@H]1C[C@]2(O)C(=O)[C@@]3(C)[C@@H]4[C@@H](O)C(C)(C)[C@H]4CC[C@@]3(C)[C@H](O)[C@H]2[C@H]1OC(=O)c1ccccc1,inactive

# Other lines, results leading:
row,inhibition,Compound
1,inactive,C[C@H]1C[C@]2(O)C(=O)[C@@]3(C)[C@@H]4[C@@H](O)C(C)(C)[C@H]4CC[C@@]3(C)[C@H](O)[C@H]2[C@H]1OC(=O)/C=C/c1ccccc1
2,inactive,C[C@H]1C[C@]2(O)C(=O)[C@@]3(C)[C@H](O)[C@@H]4[C@H](CC[C@@]3(C)[C@H](O)[C@H]2[C@H]1OC(=O)/C=C/c1ccccc1)C4(C)C
3,inactive,CO[C@@H]1[C@@H]2[C@H](CC[C@@]3(C)[C@H](O)[C@H]4[C@@H](O)[C@@H](C)C[C@]4(OC(=O)/C=C/c4ccccc4)C(=O)[C@@]23C)C1(C)C

# Test system: A549
# Assay: Cytotoxicity against human A549 cells assessed as cell viability at 10 uM after 96 hrs by MTT assay
# Assay type: functional, cell-based
row,Compound,Activity
1,C[C@H]1C[C@]2(O)C(=O)[C@@]3(C)[C@@H]4[C@@H](O)C(C)(C)[C@H]4CC[C@@]3(C)[C@H](O)[C@H]2[C@H]1OC(=O)/C=C/c1ccccc1,inactive
2,C[C@H]1C[C@]2(O)C(=O)[C@@]3(C)[C@H](O)[C@@H]4[C@H](CC[C@@]3(C)[C@H](O)[C@H]2[C@H]1OC(=O)/C=C/c1ccccc1)C4(C)C,inactive
3,CCO[C@@H]1[C@@H]2[C@H](CC[C@@]3(C)[C@H](O)[C@H]4[C@@H](OC(=O)/C=C/c5ccccc5)[C@@H](C)C[C@]4(O)C(=O)[C@@]13C)C2(C)C,inactive
4,C[C@H]1C[C@]2(O)C(=O)[C@@]3(C)[C@H](O)[C@@H]4[C@H](CC[C@@]3(C)[C@H](O)[C@H]2[C@H]1OC(=O)c1ccccc1)C4(C)C,inactive
5,CO[C@@H]1[C@@H]2[C@H](CC[C@@]3(C)[C@H](O)[C@H]4[C@@H](O)[C@@H](C)C[C@]4(OC(=O)/C=C/c4ccccc4)C(=O)[C@@]23C)C1(C)C,inactive
6,C[C@H]1C[C@]2(O)C(=O)[C@@]3(C)[C@@H]4[C@@H](O)C(C)(C)[C@H]4CC[C@@]3(C)[C@H](O)[C@H]2[C@H]1OC(=O)c1ccccc1,inactive

# Test system: Human immunodeficiency virus 1
# Assay: Antiviral activity against HIV1 infected in human 293T cells assessed as inhibition of viral replication at 10 uM incubated for 15 mins prior to infection measured after 48 hrs by luciferase reporter gene assay
# Assay type: functional, organism-based
row,Compound,Activity
1,C[C@H]1C[C@]2(O)C(=O)[C@@]3(C)[C@@H]4[C@@H](O)C(C)(C)[C@H]4CC[C@@]3(C)[C@H](O)[C@H]2[C@H]1OC(=O)/C=C/c1ccccc1,inactive
2,C[C@H]1C[C@]2(O)C(=O)[C@@]3(C)[C@H](O)[C@@H]4[C@H](CC[C@@]3(C)[C@H](O)[C@H]2[C@H]1OC(=O)/C=C/c1ccccc1)C4(C)C,inactive
3,CCO[C@@H]1[C@@H]2[C@H](CC[C@@]3(C)[C@H](O)[C@H]4[C@@H](OC(=O)/C=C/c5ccccc5)[C@@H](C)C[C@]4(O)C(=O)[C@@]13C)C2(C)C,inactive
4,C[C@H]1C[C@]2(O)C(=O)[C@@]3(C)[C@H](O)[C@@H]4[C@H](CC[C@@]3(C)[C@H](O)[C@H]2[C@H]1OC(=O)c1ccccc1)C4(C)C,inactive
5,CO[C@@H]1[C@@H]2[C@H](CC[C@@]3(C)[C@H](O)[C@H]4[C@@H](O)[C@@H](C)C[C@]4(OC(=O)/C=C/c4ccccc4)C(=O)[C@@]23C)C1(C)C,inactive
6,C[C@H]1C[C@]2(O)C(=O)[C@@]3(C)[C@@H]4[C@@H](O)C(C)(C)[C@H]4CC[C@@]3(C)[C@H](O)[C@H]2[C@H]1OC(=O)c1ccccc1,inactive

# Test system: HCT-8
# Assay: Cytotoxicity against human HCT8 cells assessed as cell viability at 10 uM after 96 hrs by MTT assay
# Assay type: functional, cell-based
row,Compound,Activity
1,C[C@H]1C[C@]2(O)C(=O)[C@@]3(C)[C@@H]4[C@@H](O)C(C)(C)[C@H]4CC[C@@]3(C)[C@H](O)[C@H]2[C@H]1OC(=O)/C=C/c1ccccc1,inactive
2,C[C@H]1C[C@]2(O)C(=O)[C@@]3(C)[C@H](O)[C@@H]4[C@H](CC[C@@]3(C)[C@H](O)[C@H]2[C@H]1OC(=O)/C=C/c1ccccc1)C4(C)C,inactive
3,CCO[C@@H]1[C@@H]2[C@H](CC[C@@]3(C)[C@H](O)[C@H]4[C@@H](OC(=O)/C=C/c5ccccc5)[C@@H](C)C[C@]4(O)C(=O)[C@@]13C)C2(C)C,inactive
4,C[C@H]1C[C@]2(O)C(=O)[C@@]3(C)[C@H](O)[C@@H]4[C@H](CC[C@@]3(C)[C@H](O)[C@H]2[C@H]1OC(=O)c1ccccc1)C4(C)C,inactive
5,CO[C@@H]1[C@@H]2[C@H](CC[C@@]3(C)[C@H](O)[C@H]4[C@@H](O)[C@@H](C)C[C@]4(OC(=O)/C=C/c4ccccc4)C(=O)[C@@]23C)C1(C)C,inactive
6,C[C@H]1C[C@]2(O)C(=O)[C@@]3(C)[C@@H]4[C@@H](O)C(C)(C)[C@H]4CC[C@@]3(C)[C@H](O)[C@H]2[C@H]1OC(=O)c1ccccc1,inactive

# Test system: Bel-7402
# Assay: Cytotoxicity against human Bel7402 cells assessed as cell viability at 10 uM after 96 hrs by MTT assay
# Assay type: functional, cell-based
row,Compound,Activity
1,C[C@H]1C[C@]2(O)C(=O)[C@@]3(C)[C@@H]4[C@@H](O)C(C)(C)[C@H]4CC[C@@]3(C)[C@H](O)[C@H]2[C@H]1OC(=O)/C=C/c1ccccc1,inactive
2,C[C@H]1C[C@]2(O)C(=O)[C@@]3(C)[C@H](O)[C@@H]4[C@H](CC[C@@]3(C)[C@H](O)[C@H]2[C@H]1OC(=O)/C=C/c1ccccc1)C4(C)C,inactive
3,CCO[C@@H]1[C@@H]2[C@H](CC[C@@]3(C)[C@H](O)[C@H]4[C@@H](OC(=O)/C=C/c5ccccc5)[C@@H](C)C[C@]4(O)C(=O)[C@@]13C)C2(C)C,inactive
4,C[C@H]1C[C@]2(O)C(=O)[C@@]3(C)[C@H](O)[C@@H]4[C@H](CC[C@@]3(C)[C@H](O)[C@H]2[C@H]1OC(=O)c1ccccc1)C4(C)C,inactive
5,CO[C@@H]1[C@@H]2[C@H](CC[C@@]3(C)[C@H](O)[C@H]4[C@@H](O)[C@@H](C)C[C@]4(OC(=O)/C=C/c4ccccc4)C(=O)[C@@]23C)C1(C)C,inactive
6,C[C@H]1C[C@]2(O)C(=O)[C@@]3(C)[C@@H]4[C@@H](O)C(C)(C)[C@H]4CC[C@@]3(C)[C@H](O)[C@H]2[C@H]1OC(=O)c1ccccc1,inactive
